What was measured:
Assay type in all cases: cell-based
Details in all cases: read-out: LD50
[1] = In vitro cytotoxic activity against human colon tumor-8r cells in culture and LD50 was reported at the end of incubation period of 72 hours.
[2] = In vitro cytotoxic activity against human colon tumor-8r cells in culture and LD50 was reported at the end of incubation period of 48 hours.
[3] = In vitro cytotoxic activity against human colon tumor-8r cells in culture and LD50 was reported at the end of incubation period of 24 hours.
[4] = In vitro cytotoxic activity against of human colon tumor-8r cells in culture and LD50 was reported at the end of incubation period of 24 hours.
[5] = In vitro cytotoxic activity against of human colon tumor-8r cells in culture and LD50 was reported at the end of incubation period of 72 hours.
[6] = In vitro cytotoxic activity against of human colon tumor-8r cells in culture and LD50 was reported at the end of incubation period of 48 hours.

Row | Structure (SMILES) | CC50 at 72 h [1] [µM] | CC50 at 48 h [2] [µM] | CC50 at 24 h [3] [µM] | CC50 at 24 h [4] [µM] | CC50 at 72 h [5] [µM] | CC50 at 48 h [6] [µM]
1 | CCCCCCCCCC(=O)Oc1cccc2c1CC(C[Se]c1ccccc1)C(=O)O2 (centres undefined) | 140 | 150 | 230 | – | – | –
2 | O=C1Oc2cccc(O)c2CC1C[Se]c1ccccc1 (centres undefined) | 230 | 280 | 330 | – | – | –
3 | CC(=O)Oc1cccc2c1CC(C[Se]c1ccccc1)C(=O)O2 (centres undefined) | 180 | 240 | – | 290 | – | –
4 | Sc1ncnc2nc[nH]c12 [MERCAPTOPURINE ANHYDROUS] | 280 | 350 | 760 | – | – | –
5 | CCC(=O)Oc1cccc2c1CC(C[Se]c1ccccc1)C(=O)O2 (centres undefined) | – | – | 310 | – | 210 | 250
6 | CCCCCCCC(=O)Oc1cccc2c1CC(C[Se]c1ccccc1)C(=O)O2 (centres undefined) | – | – | – | 300 | 180 | 230
7 | O=C1Oc2cccc(OC3CCCCO3)c2CC1C[Se]c1ccccc1 (centres undefined) | 150 | 190 | 260 | – | – | –
8 | CCCC(=O)Oc1cccc2c1CC(C[Se]c1ccccc1)C(=O)O2 (centres undefined) | 320 | 270 | 370 | – | – | –

Source: ChEMBL document CHEMBL1122776, “Synthesis and antitumor activity of some aromatic seleno lactones” (J Med Chem, 1984)
